# According to ChEMBL document CHEMBL3785084, “Rational modification of the lead molecule: Enhancement in the anticancer and dihydrofolate reductase inhibitory activity” (Bioorg Med Chem Lett, 2016):
# Biological target: T1, Dihydrofolate reductase (Homo sapiens, UniProt P00374)
# T1 sequence (P00374 whole entry): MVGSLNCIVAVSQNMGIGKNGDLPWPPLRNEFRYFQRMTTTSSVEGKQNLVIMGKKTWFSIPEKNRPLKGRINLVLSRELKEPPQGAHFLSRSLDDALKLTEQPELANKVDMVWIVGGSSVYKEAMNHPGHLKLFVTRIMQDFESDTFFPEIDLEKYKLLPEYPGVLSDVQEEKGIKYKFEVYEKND
# Assay: Inhibition of human DHFR assessed as conversion of dihydrofolic acid to tetrahydrfolic acid by enzyme immunoassay in presence of NADPH
# Conditions: not given
row,SMILES,IC50
1,CN1C(=O)C(=Cc2cn(CC(O)Cn3cc(C=C4C(=O)N(C)C(=O)N(C)C4=O)c4ccccc43)c3ccccc23)C(=O)N(C)C1=O,20 µM

# Test system: not listed separately
# Assay: Cytotoxicity against human HL-60(TB) cells assessed as cell growth at 10^-5 M after 48 hrs by sulforhodamine B assay
# Type: functional
# Conditions: HL-60, 48 h, read-out: Activity
row,SMILES,growth at 10 µM
1,CN1C(=O)C(=Cc2cn(CC(O)Cn3cc(C=C4C(=O)N(C)C(=O)N(C)C4=O)c4ccccc43)c3ccccc23)C(=O)N(C)C1=O,107%

# Test system: K562
# Assay: Cytotoxicity against human K562 cells assessed as cell growth at 10^-5 M after 48 hrs by sulforhodamine B assay
# Type: functional
# Conditions: K562, 48 h, read-out: Activity
row,SMILES,growth at 10 µM
1,CN1C(=O)C(=Cc2cn(CC(O)Cn3cc(C=C4C(=O)N(C)C(=O)N(C)C4=O)c4ccccc43)c3ccccc23)C(=O)N(C)C1=O,97.3%

# Test system: not listed separately
# Assay: Cytotoxicity against human MOLT4 cells assessed as cell growth at 10^-5 M after 48 hrs by sulforhodamine B assay
# Type: functional
# Conditions: MOLT-4, 48 h, read-out: Activity
row,SMILES,growth at 10 µM
1,CN1C(=O)C(=Cc2cn(CC(O)Cn3cc(C=C4C(=O)N(C)C(=O)N(C)C4=O)c4ccccc43)c3ccccc23)C(=O)N(C)C1=O,106%

# Test system: SR
# Assay: Cytotoxicity against human SR cells assessed as cell growth at 10^-5 M after 48 hrs by sulforhodamine B assay
# Type: functional
# Conditions: read-out: Activity
row,SMILES,growth at 10 µM
1,CN1C(=O)C(=Cc2cn(CC(O)Cn3cc(C=C4C(=O)N(C)C(=O)N(C)C4=O)c4ccccc43)c3ccccc23)C(=O)N(C)C1=O,94.3%

# Test system: A549
# Assay: Cytotoxicity against human A549 cells assessed as cell growth at 10^-5 M after 48 hrs by sulforhodamine B assay
# Type: functional
# Conditions: A549, 48 h, read-out: Activity
row,SMILES,growth at 10 µM
1,CN1C(=O)C(=Cc2cn(CC(O)Cn3cc(C=C4C(=O)N(C)C(=O)N(C)C4=O)c4ccccc43)c3ccccc23)C(=O)N(C)C1=O,96.8%

# Test system: EKVX
# Assay: Cytotoxicity against human EKVX cells assessed as cell growth at 10^-5 M after 48 hrs by sulforhodamine B assay
# Type: functional
# Conditions: read-out: Activity
row,SMILES,growth at 10 µM
1,CN1C(=O)C(=Cc2cn(CC(O)Cn3cc(C=C4C(=O)N(C)C(=O)N(C)C4=O)c4ccccc43)c3ccccc23)C(=O)N(C)C1=O,91.7%

# Test system: NCI-H226
# Assay: Cytotoxicity against human NCI-H226 cells assessed as cell growth at 10^-5 M after 48 hrs by sulforhodamine B assay
# Type: functional
# Conditions: NCI-H226, 48 h, read-out: Activity
row,SMILES,growth at 10 µM
1,CN1C(=O)C(=Cc2cn(CC(O)Cn3cc(C=C4C(=O)N(C)C(=O)N(C)C4=O)c4ccccc43)c3ccccc23)C(=O)N(C)C1=O,86%

# Test system: NCI-H460
# Assay: Cytotoxicity against human NCI-H460 cells assessed as cell growth at 10^-5 M after 48 hrs by sulforhodamine B assay
# Type: functional
# Conditions: NCI-H460, 48 h, read-out: Activity
row,SMILES,growth at 10 µM
1,CN1C(=O)C(=Cc2cn(CC(O)Cn3cc(C=C4C(=O)N(C)C(=O)N(C)C4=O)c4ccccc43)c3ccccc23)C(=O)N(C)C1=O,33.1%

# Test system: not listed separately
# Assay: Cytotoxicity against human HCC2998 cells assessed as cell growth at 10^-5 M after 48 hrs by sulforhodamine B assay
# Type: functional
# Conditions: HCC 2998, 48 h, read-out: Activity
row,SMILES,growth at 10 µM
1,CN1C(=O)C(=Cc2cn(CC(O)Cn3cc(C=C4C(=O)N(C)C(=O)N(C)C4=O)c4ccccc43)c3ccccc23)C(=O)N(C)C1=O,104%

# Test system: not listed separately
# Assay: Cytotoxicity against human HCT15 cells assessed as cell growth at 10^-5 M after 48 hrs by sulforhodamine B assay
# Type: functional
# Conditions: HCT-15, 48 h, read-out: Activity
row,SMILES,growth at 10 µM
1,CN1C(=O)C(=Cc2cn(CC(O)Cn3cc(C=C4C(=O)N(C)C(=O)N(C)C4=O)c4ccccc43)c3ccccc23)C(=O)N(C)C1=O,105%

# Test system: HT-29
# Assay: Cytotoxicity against human HT-29 cells assessed as cell growth at 10^-5 M after 48 hrs by sulforhodamine B assay
# Type: functional
# Conditions: HT-29, 48 h, read-out: Activity
row,SMILES,growth at 10 µM
1,CN1C(=O)C(=Cc2cn(CC(O)Cn3cc(C=C4C(=O)N(C)C(=O)N(C)C4=O)c4ccccc43)c3ccccc23)C(=O)N(C)C1=O,112%

# Test system: not listed separately
# Assay: Cytotoxicity against human SW620 cells assessed as cell growth at 10^-5 M after 48 hrs by sulforhodamine B assay
# Type: functional
# Conditions: SW-620, 48 h, read-out: Activity
row,SMILES,growth at 10 µM
1,CN1C(=O)C(=Cc2cn(CC(O)Cn3cc(C=C4C(=O)N(C)C(=O)N(C)C4=O)c4ccccc43)c3ccccc23)C(=O)N(C)C1=O,102%

# Test system: not listed separately
# Assay: Cytotoxicity against human SF268 cells assessed as cell growth at 10^-5 M after 48 hrs by sulforhodamine B assay
# Type: functional
# Conditions: SF-268, 48 h, read-out: Activity
row,SMILES,growth at 10 µM
1,CN1C(=O)C(=Cc2cn(CC(O)Cn3cc(C=C4C(=O)N(C)C(=O)N(C)C4=O)c4ccccc43)c3ccccc23)C(=O)N(C)C1=O,92%

# Test system: not listed separately
# Assay: Cytotoxicity against human SF295 cells assessed as cell growth at 10^-5 M after 48 hrs by sulforhodamine B assay
# Type: functional
# Conditions: SF-295, 48 h, read-out: Activity
row,SMILES,growth at 10 µM
1,CN1C(=O)C(=Cc2cn(CC(O)Cn3cc(C=C4C(=O)N(C)C(=O)N(C)C4=O)c4ccccc43)c3ccccc23)C(=O)N(C)C1=O,107%

# Test system: not listed separately
# Assay: Cytotoxicity against human SF539 cells assessed as cell growth at 10^-5 M after 48 hrs by sulforhodamine B assay
# Type: functional
# Conditions: SF-539, 48 h, read-out: Activity
row,SMILES,growth at 10 µM
1,CN1C(=O)C(=Cc2cn(CC(O)Cn3cc(C=C4C(=O)N(C)C(=O)N(C)C4=O)c4ccccc43)c3ccccc23)C(=O)N(C)C1=O,103%

# Test system: not listed separately
# Assay: Cytotoxicity against human SNB19 cells assessed as cell growth at 10^-5 M after 48 hrs by sulforhodamine B assay
# Type: functional
# Conditions: SNB-19, 48 h, read-out: Activity
row,SMILES,growth at 10 µM
1,CN1C(=O)C(=Cc2cn(CC(O)Cn3cc(C=C4C(=O)N(C)C(=O)N(C)C4=O)c4ccccc43)c3ccccc23)C(=O)N(C)C1=O,102%
